Target: T1, KCNQ 2/3 channels (HEK293 cells stably expressing human KCNQ2 and KCNQ3 subunits) (Homo sapiens, UniProt O43525+O43526)
T1 construct: expressed in transfected cells; host or cells: HEK293
Experiment: KCNQ2/3 channel activation, thallium flux FLIPR assay with BTC-AM dye
Type: cell-based
Conditions: for Emax: HEK293, maximum response relative to the response produced by 10 μM retigabine (set at 100%), read-out: Max. %; for EC50: HEK293 cells expressing human KCNQ2 and KCNQ3, thallium flux, FLIPR
Protocol: The following example describes the assay that can be used to identify compounds that activate KCNQ 2/3 channels.
HEK293 cells stably expressing human KCNQ2 and KCNQ3 subunits were seeded in 96-well, black-walled, clear-bottomed, poly-D-lysine coated plates (BD Biosciences, Bedford, Mass.) at a density of 1×10^5 cells per well 24 hours before the assay. On the assay day, BTC-AM dye (Invitrogen, Carlsbad, Calif.) was loaded into the cells by replacing the cell culture medium with 55 μL/well of 3 μg/mL dye in DPBS. Dye loading was allowed to proceed for 2 hours at room temperature and then cells were washed twice with 50 μL/well of assay buffer (in mM: 10 HEPES pH 7.3, 5 glucose, 140 Na-gluconate, 2.5 K-gluconate, 3.6 Ca-gluconate, 2 MgSO4, 0.1 Ouabain) to remove unloaded dye. Cells were incubated in 50 μL of assay buffer before loading onto a FLIPR system (Molecular Devices, Sunnyvale, Calif.). Various concentrations of compounds to be assayed were added to the cells in 50 μL of assay buffer and incubated for 4 minutes. The fluorescence signal was initiated by adding 100 μL of assay buffer containing 6 mM TlNO3 and 10 mM K2SO4. Fluors were excited using the 488-nm line of an argon laser and emission was filtered using a 540±30 nm bandpass filter. Fluorescent signals were recorded for 3 minutes. Sums of the responses over basal responses were plotted versus concentrations of test compounds to obtain an EC50 value. The maximum response for each test compound was determined relative to the response produced by 10 μM retigabine. The maximum response of retigabine at 10 μM was set at 100%.

Row | Emax | EC50 | SMILES
1 | 139% | < 0.1 µM | O=C(CC1CC2CCC1C2)Nn1nc(Cc2ccc(Cl)cc2)c2ccccc2c1=O (racemic) [Example 144, (±)-2-(exo-bicyclo[2.2.1]hept-2-yl)-N-[4-(4-chlorobenzyl)-1-oxophthalazin-2(1H)-yl]acetamide]
2 | 130% | < 0.1 µM | O=C(C[C@H]1C[C@@H]2CC[C@H]1C2)Nn1nc(Cc2ccccc2)c2ccccc2c1=O (racemic) [Example 141, (±)-N-(4-benzyl-1-oxophthalazin-2(1H)-yl)-2-(exo-bicyclo[2.2.1]hept-2-yl)acetamide]
3 | 153% | 0.1 to 0.5 µM | O=C(CC12CC3CC(CC(C3)C1)C2)Nn1nc(-c2cccc(Cl)c2)c2ccccc2c1=O [Example 126, 2-(adamantan-1-yl)-N-[4-(3-chlorophenyl)-1-oxophthalazin-2(1H)-yl]acetamide]
4 | 130% | < 0.1 µM | O=C(Cc1ccc(Cl)cc1)Nn1nc(C2CCCC2)c2ccccc2c1=O [Example 72, 2-(4-chlorophenyl)-N-(4-cyclopentyl-1-oxophthalazin-2(1H)-yl)acetamide]
5 | 97% | 1 to 10 µM | COc1ccc(CC(=O)Nn2nc(-c3ccc(Cl)cc3)c3ccccc3c2=O)cc1 [Example 104, N-[4-(4-chlorophenyl)-1-oxophthalazin-2(1H)-yl]-2-(4-methoxyphenyl)acetamide]
6 | 175% | 0.1 to 0.5 µM | O=C(Cc1ccc(Cl)cc1)Nn1nc(-c2ccccc2)c2c(F)ccc(F)c2c1=O [Example 16, 2-(4-chlorophenyl)-N-(5,8-difluoro-1-oxo-4-phenylphthalazin-2(1H)-yl)acetamide]
7 | 126% | < 0.1 µM | CC(C)(CC(=O)Nn1nc(Cc2ccccc2)c2ccccc2c1=O)c1ccccc1 [Example 140, N-(4-benzyl-1-oxophthalazin-2(1H)-yl)-3-methyl-3-phenylbutanamide]
8 | 112% | 0.5 to 1 µM | O=C(Cc1ccc(Br)cc1)Nn1nc(-c2ccc(Cl)cc2)c2ccccc2c1=O [Example 102, 2-(4-bromophenyl)-N-[4-(4-chlorophenyl)-1-oxophthalazin-2(1H)-yl]acetamide]
9 | 123% | 0.1 to 0.5 µM | O=C(Cc1ccc(Cl)cc1)Nn1nc(-c2ccccc2)c2c(c1=O)CCCC2 [Example 187, 2-(4-chlorophenyl)-N-(1-oxo-4-phenyl-5,6,7,8-tetrahydrophthalazin-2(1H)-yl)acetamide]
10 | 114% | 0.1 to 0.5 µM | COc1ccc(-c2nn(NC(=O)CC3CCC(C)CC3)c(=O)c3ccccc23)cc1 (stereo not drawn) [Example 152, N-[4-(4-methoxyphenyl)-1-oxophthalazin-2(1H)-yl]-2-(4-methylcyclohexyl)acetamide]
11 | 150% | < 0.1 µM | O=C(CC1CC2CCC1C2)Nn1nc(-c2cccc(Cl)c2)c2ccccc2c1=O (racemic) [Example 125, (±)-2-(exo-bicyclo[2.2.1]hept-2-yl)-N-[4-(3-chlorophenyl)-1-oxophthalazin-2(1H)-yl]acetamide]
12 | 134% | < 0.1 µM | O=C(C[C@H]1C[C@@H]2CC[C@H]1C2)Nn1nc(-c2ccc(Br)cc2)c2ccccc2c1=O (racemic) [Example 84, (±)-2-(exo-bicyclo[2.2.1]heptan-2-yl)-N-[4-(4-bromophenyl)-1-oxophthalazin-2(1H)-yl]acetamide]
13 | 20% | > 10 µM | COc1ccc(-c2nn(NC(=O)CC34CC5CC(CC(C5)C3)C4)c(=O)c3cc(Br)ccc23)cc1 [Example 174, 2-(adamantan-1-yl)-N-[7-bromo-4-(4-methoxyphenyl)-1-oxophthalazin-2(1H)-yl]acetamide]
14 | 160% | < 0.1 µM | CC(C)(C)c1nn(NC(=O)CC2CC3CCC2C3)c(=O)c2ccccc12 (racemic) [Example 63, (±)-2-(exo-bicyclo[2.2.1]heptan-2-yl)-N-(4-tert-butyl-1-oxophthalazin-2(1H)-yl)acetamide]
15 | 109% | < 0.1 µM | O=C(Cc1ccc(Cl)cc1)Nn1nc(Cc2ccccc2)c2ccccc2c1=O [Example 142, N-(4-benzyl-1-oxophthalazin-2(1H)-yl)-2-(4-chlorophenyl)acetamide]
16 | 134% | 0.1 to 0.5 µM | CC(C)c1ccc(-c2nn(NC(=O)C[C@H]3C[C@@H]4CC[C@H]3C4)c(=O)c3ccccc23)cc1 (racemic) [Example 168, (±)-2-(exo-bicyclo[2.2.1]hept-2-yl)-N-[4-(4-isopropylphenyl)-1-oxophthalazin-2(1H)-yl]acetamide]
17 | 98% | 0.1 to 0.5 µM | Cc1ccc(CC(=O)Nn2nc(-c3ccc(Cl)cc3)c3ccccc3c2=O)cc1 [Example 107, N-[4-(4-chlorophenyl)-1-oxophthalazin-2(1H)-yl]-2-(4-methylphenyl)acetamide]
18 | 61% | 1 to 10 µM | O=C(Cc1ccsc1)Nn1nc(C(F)(F)F)c2ccccc2c1=O [Example 53, N-[1-oxo-4-(trifluoromethyl)phthalazin-2(1H)-yl]-2-(3-thienyl)acetamide]
19 | 81% | 0.5 to 1 µM | O=C(Cc1ccc(C(F)(F)F)cc1)Nn1nc(-c2ccc(Cl)cc2)c2ccccc2c1=O [Example 99, N-[4-(4-chlorophenyl)-1-oxophthalazin-2(1H)-yl]-2-[4-(trifluoromethyl)phenyl]acetamide]
20 | 95% | 0.1 to 0.5 µM | Cc1ccc(-c2nn(NC(=O)C[C@@H]3CC[C@H]4C[C@@H]3C4(C)C)c(=O)c3ccccc23)cc1 [Example 137, 2-[(1S,2S,5S)-6,6-dimethylbicyclo[3.1.1]hept-2-yl]-N-[4-(4-methylphenyl)-1-oxophthalazin-2(1H)-yl]acetamide]
21 | 92% | 0.5 to 1 µM | O=C(Cc1cc(F)ccc1F)Nn1nc(-c2ccccc2)c2ccccc2c1=O [Example 27, 2-(2,5-difluorophenyl)-N-(1-oxo-4-phenylphthalazin-2(1H)-yl)acetamide]
22 | 121% | 1 to 10 µM | Cc1nn(NC(=O)Cc2ccc(Cl)cc2)c(=O)c2ccccc12 [Example 28, 2-(4-chlorophenyl)-N-(4-methyl-1-oxophthalazin-2(1H)-yl)acetamide]
23 | 51% | 1 to 10 µM | Cc1ccc(CC(=O)Nn2nc(C(F)(F)F)c3ccccc3c2=O)s1 [Example 56, 2-(5-methyl-2-thienyl)-N-[1-oxo-4-(trifluoromethyl)phthalazin-2(1H)-yl]acetamide]
24 | 177% | 0.1 to 0.5 µM | Cc1ccc(C)c(-c2nn(NC(=O)CC34CC5CC(CC(C5)C3)C4)c(=O)c3ccccc23)c1 [Example 156, 2-(adamantan-1-yl)-N-[4-(2,5-dimethylphenyl)-1-oxophthalazin-2(1H)-yl]acetamide]
25 | 7% | > 10 µM | CN(C)c1ccc(CC(=O)Nn2nc(C(F)(F)F)c3ccccc3c2=O)cc1 [Example 47, 2-[4-(dimethylamino)phenyl]-N-[1-oxo-4-(trifluoromethyl)phthalazin-2(1H)-yl]acetamide]
26 | 151% | 0.1 to 0.5 µM | CC(C)(C)c1nn(NC(=O)Cc2ccc(Cl)cc2)c(=O)c2ccccc12 [Example 65, N-(4-tert-butyl-1-oxophthalazin-2(1H)-yl)-2-(4-chlorophenyl)acetamide]
27 | 156% | 0.5 to 1 µM | O=C(Cc1cc(F)cc(F)c1)Nn1nc(C2CC2)c2ccccc2c1=O [Example 23, N-(4-cyclopropyl-1-oxophthalazin-2(1H)-yl)-2-(3,5-difluorophenyl)acetamide]

Source: patent publication US8629143B2, “Potassium channel modulators” (AbbVie Inc., priority 2009, dated 2014)
